From patent US5242938A, “Derivatives of virginiamycin M1” (Merck & Co., Inc., priority 1992, dated 1993) come the findings set out here.

The test system of test [1] is Staphylococcus aureus (Mb 2983). Nature of the test: Agar diffusion disc assay, Sta 2983. The class given is cell-based. The following applies: Staphylococcus aureus, 18 h; @ 20 g/disc; read-out: Inhibition zone diameter, Sta 2983. The procedure, abridged:
(§1)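 Serial dilutions from a 1 mg/ml methanol solution, 20 μl applied to 6 mm paper discs, dried, and placed on agar seeded with ~10^6 cfu. Overnight (~18 hours) incubation at 25° C; inhibition zone sizes measured to nearest mm, triplicate means; agar diffusion MIC determined per Barry.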
(In general: In agar diffusion tests the substance spreads into inoculated agar from a disc or well.)

For test [2], the target named is T1, CCK-B (guinea pig cortex) (Cavia porcellus, UniProt H0VZC5).
T1 construct: guinea pig cortical preparations; from tissue; host or cells: guinea pig brain cortex membranes
T1 sequence (H0VZC5 1-426): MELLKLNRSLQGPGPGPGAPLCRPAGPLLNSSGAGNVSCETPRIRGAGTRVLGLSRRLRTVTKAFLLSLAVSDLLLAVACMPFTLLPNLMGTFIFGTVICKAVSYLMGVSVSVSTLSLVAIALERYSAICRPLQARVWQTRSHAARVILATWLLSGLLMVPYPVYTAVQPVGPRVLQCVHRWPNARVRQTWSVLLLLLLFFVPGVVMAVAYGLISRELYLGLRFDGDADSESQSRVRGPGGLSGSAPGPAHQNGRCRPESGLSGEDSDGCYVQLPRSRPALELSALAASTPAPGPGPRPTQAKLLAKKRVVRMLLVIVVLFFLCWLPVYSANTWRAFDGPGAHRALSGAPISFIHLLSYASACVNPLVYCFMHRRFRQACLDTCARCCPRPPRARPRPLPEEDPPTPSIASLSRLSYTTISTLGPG
The experiment in a line: [125I]BHCCK-8 radioligand binding, guinea pig cortical preparation. To be noted: read-out: CCK binding inhibition - IC50, [125I]BHCCK. On the procedure: (§2) The resulting supernatant was re-spun at 20,000×g for 20 minutes. […] Incubations were for 40 minutes at 4° C. and were terminated by filtration and washing with ice cold 100 mM saline. […] Incubations were for 30 minutes at room temperature and were terminated by filtration over GF/C filters and washing with 100 mM NaCl.

Test [3] concerns Streptococcus faecium (Mb 2820). Nature of the test: Agar diffusion disc assay, Str 2820. The class given is cell-based. The following applies: Enterococcus faecium, 18 h; @ 20 g/disc; read-out: Inhibition zone diameter, Str 2820. In outline: as §1
Test [4] concerns Streptococcus agalactiae (Mb 2875). Nature of the test: Agar diffusion disc assay, Str 2875. The class given is cell-based. The following applies: Streptococcus agalactiae, 18 h; @ 20 g/disc; read-out: Inhibition zone diameter, Str 2875. The procedure, abridged:
as §1

Test [5] relates to Micrococcus luteus (Mb 1101, ATCC 9341). The experiment in a line: Agar diffusion disc assay, Micr 1101. The class given is cell-based. The following applies: Micrococcus luteus; for MIC: read-out: Agar Diffusion MIC versus Micrococcus luteus; for zone of inhibition at 1.25 µg/disc: 1.25 μg/disc; for zone of inhibition at 2.5 µg/disc: 2.50 μg/disc; for zone of inhibition at 5 µg/disc: 5.00 μg/disc; for zone of inhibition at 10 µg/disc: 10.0 μg/disc. The procedure, abridged: as §1

The subject of test [6] is Salmonella gallinarum (Mb 1287). The experiment in a line: Agar diffusion disc assay, Salm 1287. To be noted: Salmonella enterica, GALLINARUM, 18 h; @ 20 g/disc; read-out: Inhibition zone diameter, Salm 1287. The class given is cell-based. In outline:
as §1

The target in test [7] is T2, CCK-A (rat pancreas) (Rattus norvegicus, UniProt P30551).
T2 construct: from tissue; host or cells: rat pancreas
T2 sequence (P30551 1-444): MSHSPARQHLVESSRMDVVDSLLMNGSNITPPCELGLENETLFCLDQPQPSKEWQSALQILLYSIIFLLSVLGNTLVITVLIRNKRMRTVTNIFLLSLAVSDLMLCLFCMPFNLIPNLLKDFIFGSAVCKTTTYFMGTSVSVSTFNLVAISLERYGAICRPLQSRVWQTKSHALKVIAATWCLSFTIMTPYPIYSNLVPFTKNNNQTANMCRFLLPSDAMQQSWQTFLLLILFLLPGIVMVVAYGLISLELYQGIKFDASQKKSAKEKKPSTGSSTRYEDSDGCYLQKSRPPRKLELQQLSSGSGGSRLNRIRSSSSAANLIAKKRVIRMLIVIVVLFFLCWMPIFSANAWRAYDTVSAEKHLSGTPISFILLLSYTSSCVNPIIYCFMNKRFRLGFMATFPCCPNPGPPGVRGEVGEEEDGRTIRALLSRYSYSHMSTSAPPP
Nature of the test: [3H]L-364,718 CCK-A selective antagonist ligand binding, pancreas. The following applies: read-out: CCK binding inhibition - IC50, [3H]L-364,718. On the procedure: as §2

In test [8] the target is T2, CCK-A (rat pancreas). Nature of the test: [125I]BHCCK-8 radioligand binding, rat pancreatic preparation. The following applies: read-out: CCK binding inhibition - IC50, [125I]BHCCK. The procedure:
as §2

The next test concerns Bacillus sp. (Mb 633). The experiment in a line: Agar diffusion disc assay, Baci 633. The following applies: Bacillus, 18 h, @ 20 g/disc; read-out: Inhibition zone diameter, Baci 633. The class given is cell-based. The procedure, abridged:
as §1

The test system of test [9] is Pseudomonas stutzeri (Mb 1231, ATCC 11607). The experiment in a line: Agar diffusion disc assay, Pseu 1231. The class given is cell-based. The following applies: Stutzerimonas stutzeri, ATCC11607, 18 h; @ 20 g/disc; read-out: Inhibition zone diameter, Pseu 1231. The procedure, abridged:
as §1

In test [10] the test system is Escherichia coli (Mb 1418). The experiment in a line: Agar diffusion disc assay, Coli 1418. To be noted: Escherichia coli, 18 h; @ 20 g/disc; read-out: Inhibition zone diameter, Coli 1418. The class given is cell-based. In outline: as §1
The test system of test [11] is Staphylococcus aureus (Mb 108, ATCC 6538P). The experiment in a line: Agar diffusion disc assay, Sta 108. The class given is cell-based. The following applies: Staphylococcus aureus, ATCC6538P, 18 h; @ 20 g/disc; read-out: Inhibition zone diameter, Sta 108. The procedure, abridged: as §1
In test [12] the test system is En terobacter aergenes (Mb 835). The experiment in a line: Agar diffusion disc assay, Ent 835. The class given is cell-based. To be noted: 18 h; @ 20 g/disc; read-out: Inhibition zone diameter, Ent 835. In outline:
as §1

The target in test [13] is T1, CCK-B (guinea pig cortex). The experiment in a line: [3H]L-365,260 CCK-B selective antagonist ligand binding, brain membranes. To be noted: for IC50: read-out: CCK binding inhibition - IC50, [3H]L-365,260. The procedure:
as §2

Test [14] relates to Bacillus subtilis (Mb 964, ATCC 6633). Nature of the test: Agar diffusion disc assay, Subt 964. To be noted: Bacillus subtilis, ATCC6633, 18 h; @ 20 g/disc; read-out: Inhibition zone diameter, Subt 964. The class given is cell-based. In outline:
as §1

Test [15] concerns Corynebacterium pseudodiphtheriticum (Mb 261, ATCC 9742). Nature of the test: Agar diffusion disc assay, Cory 261. The class given is cell-based. To be noted: Corynebacterium pseudodiphtheriticum, ATCC9742, 18 h; @ 20 g/disc; read-out: Inhibition zone diameter, Cory 261. In outline: as §1
The mark [16] stands for this setting: ATCC9341, 18 h, @ 20 g/disc, read-out: Inhibition zone diameter, Micr 1101.
The mark [17] stands for this setting: ATCC9341, 25° C., ~18 hours, read-out: Mean of triplicate zone size versus Micrococcus luteus.
Setting [18] is: ATCC9341, 20.0 μg/disc, 25° C., ~18 hours, read-out: Mean of triplicate zone size versus Micrococcus luteus.

Structures are written as SMILES. In brackets after ≈: the same amount, converted by molar mass. Where two headings read alike, the source gives them in different places. A value given as a limit tells only on which side of the number the result lay.

Consider `CNC(=O)O[C@@H]1/C=C(C)/C=C/CNC(=O)/C=C/[C@@H](C)[C@@H](C(C)C)OC(=O)C2=CCCN2C(=O)c2coc(n2)CC(=O)C1` [Example 7], for which the zone of inhibition at 20 µg/disc in test [1] turned out to be 11 mm; in test [3], 10 mm; in [4], 16 mm; in test [5] (setting [16]), 27 mm; in [5] (setting [18]), 25 mm; in test [6], 0 mm. Also, the zone of inhibition at 20 µg/disc was 7 mm in the test with Bacillus sp. (Mb 633); 0 mm in test [9]; 0 mm in [10]; 19 mm in test [11]; 0 mm in test [12]; 0 mm in [14]. Also, the zone of inhibition at 20 µg/disc in test [15] worked out at 22 mm. For the same compound, the half-inhibitory concentration (IC50) (as a rule, the concentration that inhibits the measured activity by half) in [2] was 0.8 µM; on CCK-A (rat pancreas) [7] it was more than 3 µM; at CCK-A (rat pancreas) [8] it was more than 3 µM; in test [13] it was more than 3 µM. Besides, the minimal inhibitory concentration (MIC) (in general, the smallest concentration in the dilution series that meets the test's criterion for growth inhibition) in [5] (ATCC9341, 18 h) was 1.74 µM (≈ 1.01 µg/mL). For the same compound, in [5] (setting [17]), the zone of inhibition at 1.25 µg/disc was found to be 8 mm. For the same compound, the zone of inhibition at 2.5 µg/disc in test [5] (setting [17]) was determined as 13 mm. Further, the zone of inhibition at 5 µg/disc in [5] (setting [17]) worked out at 18 mm. In addition, the zone of inhibition at 10 µg/disc in [5] (setting [17]) was 22 mm. The “A.R. = agonist ratio = IC50([3H]L365,260)/IC50([125I]CCK)” value in [13] amounted to 19. Moreover, the “percentage in parentheses beside >3.0, [3H]L-365,260 (inhibition at top concentration, not defined)” value in [13] (beside IC50 >3.0) worked out at 14%.
Regarding `CC1=C\[C@@H](OC(=O)Nc2ccccc2[N+](=O)[O-])CC(=O)Cc2nc(co2)C(=O)N2CCC=C2C(=O)O[C@H](C(C)C)[C@H](C)/C=C/C(=O)NC\C=C\1` [Example 8], the zone of inhibition at 20 µg/disc in test [1] was determined as 0 mm; in test [3], 0 mm; in [4], 0 mm; in test [5] (setting [16]), 16 mm; in [5] (setting [18]), 16 mm; in test [6], 0 mm. For the same compound, the zone of inhibition at 20 µg/disc in the test with Bacillus sp. (Mb 633) is 0 mm; in [9], 0 mm; in test [10], 0 mm; in [11], 7 mm; in [12] it was 0 mm; in test [14] it was 0 mm. Further, the zone of inhibition at 20 µg/disc in test [15] turned out to be 9 mm. The IC50 in test [2] is 0.3 µM; on CCK-A (rat pancreas) [7], more than 3 µM; on CCK-A (rat pancreas) [8], more than 3 µM; in test [13] it was 3.1 µM. Moreover, the MIC in [5] (ATCC9341, 18 h) stood at 0.019 µM (≈ 0.0131 µg/mL). Moreover, the zone of inhibition at 1.25 µg/disc in [5] (setting [17]) was 12 mm. For the same compound, in test [5] (setting [17]), the zone of inhibition at 2.5 µg/disc amounted to 15 mm. Moreover, in [5] (setting [17]), the zone of inhibition at 5 µg/disc was 15 mm. Besides, the zone of inhibition at 10 µg/disc in [5] (setting [17]) came out at 16 mm. Besides, the “A.R. = agonist ratio = IC50([3H]L365,260)/IC50([125I]CCK)” value in test [13] is 10.
